Activity calls are given as the source filed them. How the calls were made is not given here.
System: CCRIS mutagenicity, Ames/micronucleus/aberration tests
Assay: CCRIS mutagenicity studies
[1] = Test System: AMES SALMONELLA TYPHIMURIUM, Strain/Indicator: TA98, Metabolic Activation: NONE, Method: PREINCUBATION
[2] = Test System: AMES SALMONELLA TYPHIMURIUM, Strain/Indicator: TA100, Metabolic Activation: NONE, Method: PREINCUBATION
[3] = Test System: AMES SALMONELLA TYPHIMURIUM, Strain/Indicator: TA1535, Metabolic Activation: NONE, Method: PREINCUBATION

In the case of `CC(C)c1ccccc1O`, the mutagenic call [1] is reported as “inactive; negative”, the mutagenic call (Test System: AMES SALMONELLA TYPHIMURIUM, Strain/Indicator: TA98, Metabolic Activation: RAT LIVER S-9, PHENOBARBITAL AND BETA-NAPHTHOFLAVONE, Method: PREINCUBATION) is reported as “inactive; negative” and the mutagenic call [2] is reported as “inactive; negative”. The mutagenic call (Test System: AMES SALMONELLA TYPHIMURIUM, Strain/Indicator: TA100, Metabolic Activation: RAT LIVER S-9, PHENOBARBITAL AND BETA-NAPHTHOFLAVONE, Method: PREINCUBATION) was “inactive; negative”, the mutagenic call [3] was “inactive; negative” and the mutagenic call (Test System: AMES SALMONELLA TYPHIMURIUM, Strain/Indicator: TA1535, Metabolic Activation: RAT LIVER S-9, PHENOBARBITAL AND BETA-NAPHTHOFLAVONE, Method: PREINCUBATION) was “inactive; negative”. For the same compound, the mutagenic call (Test System: AMES SALMONELLA TYPHIMURIUM, Strain/Indicator: TA1537, Metabolic Activation: NONE, Method: PREINCUBATION) was “inactive; negative”, the mutagenic call (Test System: AMES SALMONELLA TYPHIMURIUM, Strain/Indicator: TA1537, Metabolic Activation: RAT LIVER S-9, PHENOBARBITAL AND BETA-NAPHTHOFLAVONE, Method: PREINCUBATION) was “inactive; negative” and the mutagenic call (Test System: E.COLI, Strain/Indicator: WP2UVRA/PKM101, Metabolic Activation: NONE, Method: PREINCUBATION) was “inactive; negative”. For the same compound, the mutagenic call (Test System: E.COLI, Strain/Indicator: WP2UVRA/PKM101, Metabolic Activation: RAT LIVER S-9, PHENOBARBITAL AND BETA-NAPHTHOFLAVONE, Method: PREINCUBATION) was “inactive; negative”.

`CC(Br)C(=O)NC(C)(C)C` (configuration not stated) was tested, and the mutagenic call (Test System: AMES SALMONELLA TYPHIMURIUM, Strain/Indicator: TA100, Metabolic Activation: NONE, Method: STANDARD PLATE) was “inactive; negative”.

In the case of `O=[N+]([O-])c1cccc2ccccc12`, the mutagenic call (Test System: AMES SALMONELLA TYPHIMURIUM, Strain/Indicator: TA98, Metabolic Activation: NONE, Method: STANDARD PLATE) is reported as “active; positive”, the mutagenic call (Test System: E. COLI, Strain/Indicator: WP2 UVRA, Metabolic Activation: HAMSTER, LIVER, S-9, AROCLOR 1254, Method: STANDARD PLATE) is reported as “inactive; negative” and the mutagenic call (Test System: E. COLI, Strain/Indicator: WP2 UVRA, Metabolic Activation: MOUSE, LIVER, S-9, AROCLOR 1254, Method: STANDARD PLATE) is reported as “inactive; negative”. For the same compound, the mutagenic call (Test System: E. COLI, Strain/Indicator: WP2 UVRA, Metabolic Activation: MOUSE, LIVER, S-9, Method: STANDARD PLATE) was “inactive; negative”, the mutagenic call (Test System: E. COLI, Strain/Indicator: WP2 UVRA, Metabolic Activation: NONE, Method: STANDARD PLATE) was “inactive; negative” and the mutagenic call (Test System: E. COLI, Strain/Indicator: WP2 UVRA, Metabolic Activation: RAT, LIVER, S-9, AROCLOR 1254, Method: STANDARD PLATE) was “inactive; negative”. The mutagenic call (Test System: E. COLI, Strain/Indicator: WP2 UVRA, Metabolic Activation: RAT, LIVER, S-9, Method: STANDARD PLATE) was “inactive; negative”.

For `COc1cc(-c2ccc(N/N=C3\C=C(S(=O)(=O)O)c4ccccc4C3=O)c(OC)c2)ccc1N=Nc1cc(S(=O)(=O)O)c2ccccc2c1N`, the mutagenic call (Test System: AMES SALMONELLA TYPHIMURIUM, Strain/Indicator: TA97, Metabolic Activation: HAMSTER, LIVER, S-9, AROCLOR 1254 (10 OR 30%), Method: PREINCUBATION) was “inactive; negative”, the mutagenic call (Test System: AMES SALMONELLA TYPHIMURIUM, Strain/Indicator: TA97, Metabolic Activation: NONE, Method: PREINCUBATION) was “inactive; negative” and the mutagenic call (Test System: AMES SALMONELLA TYPHIMURIUM, Strain/Indicator: TA97, Metabolic Activation: RAT, LIVER, S-9, AROCLOR 1254 (10 OR 30%), Method: PREINCUBATION) was “inactive; negative”. The mutagenic call (Test System: AMES SALMONELLA TYPHIMURIUM, Strain/Indicator: TA98, Metabolic Activation: HAMSTER, LIVER, S-9, AROCLOR 1254 (10 OR 30%), Method: PREINCUBATION) was “inactive; negative”, the mutagenic call [1] was “inactive; negative” and the mutagenic call (Test System: AMES SALMONELLA TYPHIMURIUM, Strain/Indicator: TA98, Metabolic Activation: RAT, LIVER, S-9, AROCLOR 1254 (10 OR 30%), Method: PREINCUBATION) was “inactive; negative”. The mutagenic call (Test System: AMES SALMONELLA TYPHIMURIUM, Strain/Indicator: TA100, Metabolic Activation: HAMSTER, LIVER, S-9, AROCLOR 1254 (10 OR 30%), Method: PREINCUBATION) was “inactive; negative”, the mutagenic call [2] was “inactive; negative” and the mutagenic call (Test System: AMES SALMONELLA TYPHIMURIUM, Strain/Indicator: TA100, Metabolic Activation: RAT, LIVER, S-9, AROCLOR 1254 (10 OR 30%), Method: PREINCUBATION) was “inactive; negative”. For the same compound, the mutagenic call (Test System: AMES SALMONELLA TYPHIMURIUM, Strain/Indicator: TA1535, Metabolic Activation: HAMSTER, LIVER, S-9, AROCLOR 1254 (10 OR 30%), Method: PREINCUBATION) was “inactive; negative”, the mutagenic call [3] was “inactive; negative” and the mutagenic call (Test System: AMES SALMONELLA TYPHIMURIUM, Strain/Indicator: TA1535, Metabolic Activation: RAT, LIVER, S-9, AROCLOR 1254 (10 OR 30%), Method: PREINCUBATION) was “inactive; negative”. The mutagenic call (Test System: AMES SALMONELLA TYPHIMURIUM, Strain/Indicator: TA1538, Metabolic Activation: HAMSTER, LIVER, S-9, Method: STANDARD PLATE) was “inactive; negative” and the mutagenic call (Test System: AMES SALMONELLA TYPHIMURIUM, Strain/Indicator: TA1538, Metabolic Activation: RAT, LIVER, S-9, AROCLOR 1254, Method: STANDARD PLATE) was “inactive; negative”.

From PubChem BioAssay AID1259407 (Chemical Carcinogenesis Research Information System (CCRIS), 2018)
